Data on 34 molecules can be found in patent US8329707B2, “Substituted pyrazine compounds” (Astellas Pharma Inc., priority 2008, dated 2012).

Where a name gives a salt, the structure may show the parent alone. Read-outs that look alike come from different tables or passages of the source.

The target in this assay is T1, recombinant human hepatic type GK (GST-hGK2) (Homo sapiens, UniProt P35557).
T1 construct: made in house; host or cells: Escherichia coli BL21
T1 sequence (P35557 1-466 isoform P35557-2): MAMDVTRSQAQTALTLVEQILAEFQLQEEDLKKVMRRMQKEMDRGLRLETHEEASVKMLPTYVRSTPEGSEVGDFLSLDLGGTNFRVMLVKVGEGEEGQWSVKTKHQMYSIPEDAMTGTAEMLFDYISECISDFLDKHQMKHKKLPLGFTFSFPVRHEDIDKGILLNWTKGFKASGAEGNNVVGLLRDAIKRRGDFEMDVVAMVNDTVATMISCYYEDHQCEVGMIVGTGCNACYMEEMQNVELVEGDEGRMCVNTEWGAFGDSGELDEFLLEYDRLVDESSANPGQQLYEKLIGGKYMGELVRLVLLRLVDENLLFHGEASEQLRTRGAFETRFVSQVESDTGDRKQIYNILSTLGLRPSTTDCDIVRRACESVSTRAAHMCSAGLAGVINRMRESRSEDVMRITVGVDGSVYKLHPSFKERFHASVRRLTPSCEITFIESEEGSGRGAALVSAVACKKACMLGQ
Kind of assay: Measurement of glucokinase (GK) activation. The note with it: 10 min, read-out: GK activation (%). The class given is biochemical. The protocol:
The present test was carried out in accordance with the method described in Science 301: 370-373, 2003 and with partial modification thereof. Hereinafter, the summary is described.
First, the cloning of GK (GenBank No. AK122876) was carried out. 5′-[…]-3′(SEQ ID NO: 1) and 5′-[…]-3′(SEQ ID NO: 2) were used as primers, and pME18S-FL3-Glucokinase isoform 2 was used as a template to carry out PCR. The obtained reaction product was TA-cloned into a pGEM-T easy vector, digested with EcoRI and XhoI, and introduced to the pGEX-5X-1 vector digested in the same manner by ligation. By using this plasmid DNA (pGEX-human Glucokinase 2), a recombinant human hepatic type GK (GST-hGK2) fused with GST (Glutathione S-transferase) was expressed in Escherichia coli (BL21 strain) and purified by Glutathione Sepharose.
The reaction of GK was carried out at 27° C. on a 96-well plate. First, 1 μL of the test compound (final concentration 10 μM) that has been diluted with dimethylsulfoxide (DMSO) was added to 89 μL of an enzyme mixed liquid (all final concentration 25 mM HEPES pH 7.4, 25 mM KCl, 2 mM MgCl2, 1 mM ATP, 0.1% BSA, 1 mM DTT, 1 mM NADP (nicotinamide adenine dinucleotide phosphate), 2.5 U/ml glucose-6-phosphate dehydrogenase, GST-hGK2 adjusted to ΔODCont of about 0.05 to 0.10). Subsequently, 10 μL of a substrate solution (final concentration 5 mM glucose) was added to start the reaction. In order to quantify a final product NADPH, an absorbance at a wavelength of 340 nm was measured, and the GK activation (%) of the test compound was calculated from the increase of absorbance during the first 10 minutes (ΔOD) after initiation of the reaction. GK activation (%)=[(ΔODTest)−(ΔODCont)]/(ΔODCont)×100
ΔODTest: ΔOD at test compound

The mark [1] stands for this setting: test compound final concentration 10 μM, 5 mM glucose, 27° C., increase of absorbance at 340 nm during first 10 minutes vs DMSO.

Take `O=C(Nc1ccn(CC(O)CO)n1)/C(=C/C1CCCC1)c1ccc(S(=O)(=O)C2CC2)c(C2CC2)c1` (stereo in doubt) [Example 3, (2E)-3-cyclopentyl-2-[3-cyclopropyl-4-(cyclopropylsulfonyl)phenyl]-N-{1-[(2S)-2,3-dihydroxypropyl]-1H-pyrazol-3-yl}acrylamide]: the activation at 10 µM under setting [1] is 328%.
`O=C(Nc1ccn(CCCO)n1)/C(=C/C1CCCC1)c1ccc(S(=O)(=O)C2CC2)c(C2CC2)c1` [Example 1, (2E)-3-cyclopentyl-2-[3-cyclopropyl-4-(cyclopropylsulfonyl)phenyl]-N-[1-(3-hydroxypropyl)-1H-pyrazol-3-yl]acrylamide]: the activation at 10 µM under setting [1] was found to be 330%.
Same read-out and setting: as for `Cn1ccc(NC(=O)/C(=C/C2CCOCC2)c2ccc(S(=O)(=O)C3CC3)c(C3CC3)c2)n1` [Example 2, (2E)-2-[3-cyclopropyl-4-(cyclopropylsulfonyl)phenyl]-N-(1-methyl-1H-pyrazol-3-yl)-3-(tetrahydro-2H-pyran-4-yl)acrylamide], the figure is 365%; as for `O=C1CC[C@H](/C=C(/C(=O)Nc2ccc(C(=O)O)cn2)c2ccc(S(=O)(=O)C3CC3)c(C3CC3)c2)C1` [Example 5, 6-({(2E)-2-[3-cyclopropyl-4-(cyclopropylsulfonyl)phenyl]-3-[(1S)-3-oxocyclopentyl]prop-2-enoyl}amino)nicotinic acid monohydrochloride], 410%.
Same read-out and setting: then `O=C1CCC(/C=C(/C(=O)Nc2cnc(CO)cn2)c2ccc(S(=O)(=O)C3CC3)c(C3CC3)c2)C1` (stereo not shown) [Example 6, (2E)-2-[3-cyclopropyl-4-(cyclopropylsulfonyl)phenyl]-N-[5-(hydroxymethyl)pyrazin-2-yl]-3-(3-oxocyclopentyl)acrylamide], with 336%; and `O=C1CC[C@H](/C=C(/C(=O)Nc2nc3ccc(OCCO)nc3s2)c2ccc(S(=O)(=O)C3CC3)c(C3CC3)c2)C1` [Example 7, (2E)-2-[3-cyclopropyl-4-(cyclopropylsulfonyl)phenyl]-N-[5-(2-hydroxyethoxy)[1,3]thiazolo[5,4-b]pyridin-2-yl]-3-[(1S)-3-oxocyclopentyl]acrylamide], with 418%.
For the molecule `Cn1ccc(NC(=O)/C(=C/C2CCCC2)c2ccc(S(=O)(=O)C3CC3)c(C3CC3)c2)n1` [Example 24], under setting [1], the activation at 10 µM is 345%.
For the molecule `Cn1ccc(NC(=O)/C(=C/C2CCOC2)c2ccc(S(=O)(=O)C3CC3)c(C3CC3)c2)n1` (stereo not shown) [Example 25], the activation at 10 µM under setting [1] came to 334%.
`O=C(Nc1ncc(Cl)s1)/C(=C/C1CCOCC1)c1ccc(S(=O)(=O)C2CC2)c(C2CC2)c1` [Example 26]: under setting [1], the activation at 10 µM came to 231%.
Still for that read-out and setting: as for `O=C(Nc1ncc(Cl)s1)/C(=C/C1CCOC1)c1ccc(S(=O)(=O)C2CC2)c(C2CC2)c1` (stereo not shown) [Example 27], the figure is 211%.
On the same count and under the same terms, then `Cc1cnc(NC(=O)/C(=C/C2CCOCC2)c2ccc(S(=O)(=O)C3CC3)c(C3CC3)c2)cn1` [Example 28], with 314%; and `Cc1cnc(NC(=O)/C(=C/C2CCOC2)c2ccc(S(=O)(=O)C3CC3)c(C3CC3)c2)cn1` (stereo not shown) [Example 29], with 300%.
With `O=C(Nc1ccn(C[C@H](O)CO)n1)/C(=C/C1CCCC1)c1ccc(S(=O)(=O)C2CC2)c(C2CC2)c1` [Example 30], the activation at 10 µM under setting [1] is 309%.
Consider `Cc1cnc(NC(=O)/C(=C/C2CCC(=O)C2)c2ccc(S(=O)(=O)C3CC3)c(C3CC3)c2)cn1` (stereo not shown) [Example 31], for which, under setting [1], the activation at 10 µM turned out to be 387%.
Take `Cn1ccc(NC(=O)/C(=C/C2CCC(=O)C2)c2ccc(S(=O)(=O)C3CC3)c(C3CC3)c2)n1` (stereo not shown) [Example 32]: the activation at 10 µM under setting [1] worked out at 410%.
Turning to `O=C1CCC(/C=C(/C(=O)Nc2ncc(Cl)s2)c2ccc(S(=O)(=O)C3CC3)c(C3CC3)c2)C1` (stereo not shown) [Example 33], the activation at 10 µM under setting [1] was 375%.
`Cc1cnc(NC(=O)/C(=C/[C@@H]2CCC(=O)C2)c2ccc(S(=O)(=O)C3CC3)c(C3CC3)c2)cn1` [Example 34]: the activation at 10 µM under setting [1] is 245%.
As to `O=C1CC[C@@H](/C=C(/C(=O)Nc2ncc(Cl)s2)c2ccc(S(=O)(=O)C3CC3)c(C3CC3)c2)C1` [Example 35], the activation at 10 µM under setting [1] came out at 265%.
Take `Cn1ccc(NC(=O)/C(=C/[C@@H]2CCC(=O)C2)c2ccc(S(=O)(=O)C3CC3)c(C3CC3)c2)n1` [Example 37]: the activation at 10 µM under setting [1] was found to be 260%.
`O=C1CCC(/C=C(/C(=O)Nc2cnc(C(O)CO)cn2)c2ccc(S(=O)(=O)C3CC3)c(C3CC3)c2)C1` (stereo not shown) [Example 38]: the activation at 10 µM turned out to be 386%.
With `CC(=O)c1cnc(NC(=O)/C(=C/[C@H]2CCC(=O)C2)c2ccc(S(=O)(=O)C3CC3)c(C3CC3)c2)s1` [Example 39], under setting [1], the activation at 10 µM stood at 286%.
As to `O=C1CC[C@H](/C=C(/C(=O)Nc2nccs2)c2ccc(S(=O)(=O)C3CC3)c(C3CC3)c2)C1` [Example 40], the activation at 10 µM under setting [1] is 397%.
For `O=C1CC[C@H](/C=C(/C(=O)Nc2ncc(Cl)s2)c2ccc(S(=O)(=O)C3CC3)c(C3CC3)c2)C1` [Example 41], under setting [1], the activation at 10 µM was found to be 362%.
Consider `O=C1CC[C@H](/C=C(/C(=O)Nc2nc([C@H](O)CO)cs2)c2ccc(S(=O)(=O)C3CC3)c(C3CC3)c2)C1` [Example 43], for which the activation at 10 µM under setting [1] amounted to 391%.
Turning to `CC(=O)c1csc(NC(=O)/C(=C/[C@H]2CCC(=O)C2)c2ccc(S(=O)(=O)C3CC3)c(C3CC3)c2)n1` [Example 44], the activation at 10 µM was determined as 389%.
On to `Cc1ccc(NC(=O)/C(=C/[C@H]2CCC(=O)C2)c2ccc(S(=O)(=O)C3CC3)c(C3CC3)c2)nc1` [Example 45], for which, under setting [1], the activation at 10 µM was determined as 377%.
Consider `O=C1CC[C@H](/C=C(/C(=O)Nc2nc(CF)cs2)c2ccc(S(=O)(=O)C3CC3)c(C3CC3)c2)C1` [Example 46], for which the activation at 10 µM under setting [1] amounted to 392%.
The same measure, in the same setting: then `O=C1CC[C@H](/C=C(/C(=O)Nc2ncc(F)s2)c2ccc(S(=O)(=O)C3CC3)c(C3CC3)c2)C1` [Example 47], with 297%; and `Cc1cnc(NC(=O)/C(=C/[C@H]2CCC(=O)C2)c2ccc(S(=O)(=O)C3CC3)c(C3CC3)c2)s1` [Example 48], with 257%; and `CC(=O)c1cnc(NC(=O)[C@H](C[C@H]2CCC(=O)C2)c2ccc(S(=O)(=O)C3CC3)c(C3CC3)c2)cn1` [Example 74], with 337%.
For `CC(C)(O)c1cnc(NC(=O)[C@H](C[C@H]2CCC(=O)C2)c2ccc(S(=O)(=O)C3CC3)c(C3CC3)c2)cn1` [Example 75], the activation at 10 µM under setting [1] came to 307%.
Still for that read-out and setting: then `Cc1ccc(NC(=O)[C@H](C[C@H]2CCC(O)C2)c2ccc(S(=O)(=O)C3CC3)c(C3CC3)c2)nc1` (stereo partly shown) [Example 81], with 211%; and `Cn1ccc(NC(=O)[C@H](C[C@H]2CCC(O)C2)c2ccc(S(=O)(=O)C3CC3)c(C3CC3)c2)n1` (stereo partly shown) [Example 85], with 257%; and `O=C1CC[C@H](C[C@@H](C(=O)Nc2cnc(CCO)cn2)c2ccc(S(=O)(=O)C3CC3)c(C3CC3)c2)C1` [Example 99], with 326%.
